Assay results taken from patent publication US11912693B2, “Compounds for modulating S1P1 activity and methods of using the same” (TREVENA, INC., priority 2017, dated 2024).

Key:
[1] = target: T1, human sphingosine-1-phosphate receptor 1 (S1P1) (Homo sapiens (Human), UniProt P21453); test: Inhibition of cAMP production (HTRF cAMP HiRange), S1P1 CHO-K1 cells; format: cell-based; conditions: for Emax: CHO-K1, efficacy (SPAN) normalized to fingolimod, read-out: hS1P1 cAMP SPAN; for hS1P1 cAMP pEC50: inhibition of cAMP production, S1P1 CHO-K1 cells
Procedure, shortened: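 CHO-K1 cells stably co-expressing human S1P1 (C-terminal Prolink tag) and EA-β-arrestin2 were grown in AssayComplete Media 6 at 37° C. and 5% CO2, plated, and incubated overnight. Agonist-driven inhibition of intracellular cAMP was read by TR-FRET with the HTRF cAMP HiRange kit on a PheraStar reader. Potency is pEC50, and efficacy (SPAN) is normalized to fingolimod.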
Target sequence in this assay (P21453 whole entry, looked up): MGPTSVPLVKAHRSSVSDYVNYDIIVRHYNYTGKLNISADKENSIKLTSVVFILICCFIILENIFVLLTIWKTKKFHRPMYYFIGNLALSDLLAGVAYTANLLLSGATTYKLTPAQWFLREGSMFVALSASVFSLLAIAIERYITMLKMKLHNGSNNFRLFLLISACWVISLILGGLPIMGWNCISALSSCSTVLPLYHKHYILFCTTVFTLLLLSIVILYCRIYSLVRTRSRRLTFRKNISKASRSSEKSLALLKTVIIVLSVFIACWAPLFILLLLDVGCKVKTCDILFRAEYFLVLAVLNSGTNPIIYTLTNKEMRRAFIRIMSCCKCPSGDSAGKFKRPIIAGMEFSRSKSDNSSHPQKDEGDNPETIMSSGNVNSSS

[2] = target: T1, human sphingosine-1-phosphate receptor 1 (S1P1); test: β-Arrestin2 recruitment assay (PathHunter), S1P1 CHO-K1 cells; format: cell-based; conditions: for Emax: CHO-K1, efficacy (SPAN) normalized to fingolimod, read-out: hS1P1 B-arrestin2 SPAN; for hS1P1 B-arrestin2 pEC50: β-arrestin2 recruitment, S1P1 CHO-K1 cells
Procedure, shortened: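 Enzyme-fragment complementation read-out: agonist-driven β-arrestin2 binding to ProLink-tagged human S1P1 in stable CHO-K1 cells restores β-galactosidase, measured 1 h at room temperature after a 60 min 37° C. compound incubation. Potency as pEC50, efficacy relative to fingolimod (SPAN).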
Target sequence in this assay (P21453 whole entry, looked up): as above
Target sequence in this assay (P32121 whole entry partner, looked up): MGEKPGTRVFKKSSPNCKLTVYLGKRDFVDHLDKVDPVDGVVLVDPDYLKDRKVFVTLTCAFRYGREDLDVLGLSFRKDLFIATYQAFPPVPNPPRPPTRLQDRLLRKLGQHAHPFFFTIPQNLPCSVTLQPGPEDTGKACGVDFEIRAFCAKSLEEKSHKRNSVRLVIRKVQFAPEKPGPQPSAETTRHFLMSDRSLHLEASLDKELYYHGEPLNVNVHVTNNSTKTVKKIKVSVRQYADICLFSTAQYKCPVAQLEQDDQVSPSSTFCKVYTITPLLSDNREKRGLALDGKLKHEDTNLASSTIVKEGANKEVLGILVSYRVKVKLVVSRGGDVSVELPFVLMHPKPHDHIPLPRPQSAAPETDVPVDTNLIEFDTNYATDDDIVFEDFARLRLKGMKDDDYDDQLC

Row | Emax [1] [%] | hS1P1 cAMP pEC50 [1] | Emax [2] [%] | hS1P1 B-arrestin2 pEC50 [2] | Compound
1 | > 75 | >6.5 | > 75 | >5 | CC(C)n1ncc2cc(-c3nc(-c4ccccc4Br)no3)ccc21 [Compound 332, 3-(2-bromophenyl)-5-(1-isopropyl-1H-indazol-5-yl)-1,2,4-oxadiazole]
2 |  | <6.5 |  | <5 | Cc1ccccc1-c1csc(-c2cnc3c(ccn3C(C)C)c2)n1 [Compound 407, 2-(1-isopropylpyrrolo[2,3-b]pyridin-5-yl)-4-(o-tolyl)thiazole]
3 |  | <6.5 |  | >5 | CCC1(CC)CC(=O)c2cc(-c3nc(-c4cccc(C)c4)no3)ccc2O1 [Compound 225, 2,2-diethyl-6-(3-(m-tolyl)-1,2,4-oxadiazol-5-yl)chroman-4-one]
4 | > 75 | <6.5 | > 75 | <5 | COc1ccccc1-c1nc(-c2ccc3c(c2)nnn3C(C)(C)CO)no1 [Compound 623, 2-(5-(5-(2-methoxyphenyl)-1,2,4-oxadiazol-3-yl)-1H-benzo[d][1,2,3]triazol-1-yl)-2-methylpropan-1-ol]
5 | > 75 | >6.5 | < 75 | <5 | CC(=O)Nc1ccc(-c2noc(-c3ccc(NC(C)C)c(C#N)c3)n2)cc1 [Compound 316, N-(4-(5-(3-cyano-4-(isopropylamino)phenyl)-1,2,4-oxadiazol-3-yl)phenyl)acetamide]
6 | > 75 | <6.5 | < 75 | <5 | c1cc(-c2noc(-c3ccc4c(c3)nnn4C3CC3)n2)ccn1 [Compound 295, 1-cyclopropyl-5-[3-(pyridin-4-yl)-1,2,4-oxadiazol-5-yl]-1H-1,2,3-benzotriazole]
7 | < 75 | <6.5 | < 75 | >5 | CC(C)(O)Cn1nnc2cc(-c3nc(-c4cccc5cc[nH]c45)no3)ccc21 [Compound 577, 1-{5-[3-(1H-indol-7-yl)-1,2,4-oxadiazol-5-yl]-1H-1,2,3-benzotriazol-1-yl}-2-methylpropan-2-ol]
8 | > 75 | <6.5 | > 75 | <5 | CCC1(CC)CC(=O)c2cc(-c3nc(-c4cnccc4OC)no3)ccc2O1 [Compound 303, 2,2-diethyl-6-(3-(4-methoxypyridin-3-yl)-1,2,4-oxadiazol-5-yl)chroman-4-one]
9 | > 75 | <6.5 | < 75 | >5 | CC1(C)CC(=O)c2cc(-c3nc(-c4cccnc4)no3)ccc2O1 [Compound 274, 2,2-dimethyl-6-[3-(pyridin-3-yl)-1,2,4-oxadiazol-5-yl]-3,4-dihydro-2H-1-benzopyran-4-one]
10 |  | >6.5 |  | >5 | COc1ncccc1-c1noc(-c2ccc3c(c2)nnn3C(C)C)n1 [Compound 619, 5-(1-isopropyl-1H-benzo[d][1,2,3]triazol-5-yl)-3-(2-methoxypyridin-3-yl)-1,2,4-oxadiazole]
11 |  | <6.5 |  | >5 | CSc1ccccc1-c1nc(-c2ccc3c(c2)nnn3C2CCCC2)no1 [Compound 16, 3-(1-cyclopentyl-1H-benzo[d][1,2,3]triazol-5-yl)-5-(2-(methylthio)phenyl)-1,2,4-oxadiazole]
12 | < 75 |  | < 75 |  | Cc1cc(-c2noc(-c3ccc4c(c3)nnn4C3CCCC3)n2)ccn1 [Compound 77]
13 |  | <6.5 |  | <5 | CCCn1nnc2cc(-c3nc(-c4ccc(F)cc4)no3)ccc21 [Compound 5, 5-[3-(4-fluorophenyl)-1,2,4-oxadiazol-5-yl]-1-propyl-1H-1,2,3-benzotriazole]
14 |  | <6.5 |  | <5 | COc1ccccc1-c1noc(-c2ccc3[nH]cnc3c2)n1 [Compound 369, 5-(1H-benzo[d]imidazol-5-yl)-3-(2-methoxyphenyl)-1,2,4-oxadiazole]
15 |  | <6.5 |  | <5 | CC(C)n1nnc2cc(-c3nc(-c4ccccc4F)co3)ccc21 [Compound 21, 5-[4-(2-fluorophenyl)-1,3-oxazol-2-yl]-1-(propan-2-yl)-1H-1,2,3-benzotriazole]
16 |  | <6.5 |  | <5 | CSc1cccc(-c2nc(-c3ccc4c(c3)nnn4C3CCCC3)no2)c1 [Compound 47, 3-(1-cyclopentyl-1H-benzo[d][1,2,3]triazol-5-yl)-5-(3-(methylthio)phenyl)-1,2,4-oxadiazole]

Row | Emax [1] [%] | hS1P1 cAMP pEC50 [1] | Emax [2] [%] | hS1P1 B-arrestin2 pEC50 [2] | Compound
17 |  | <6.5 |  | <5 | CC(C)(CO)n1nnc2cc(-c3noc(-c4ccncc4C(F)(F)F)n3)ccc21 [Compound 626, 2-methyl-2-(5-(5-(3-(trifluoromethyl)pyridin-4-yl)-1,2,4-oxadiazol-3-yl)-1H-benzo[d][1,2,3]triazol-1-yl)propan-1-ol]
18 |  | <6.5 |  | <5 | O=C1CC(CO)(CO)Oc2ccc(-c3nc(-c4ccncc4)no3)cc21 [Compound 482, 2,2-bis(hydroxymethyl)-6-[3-(pyridin-4-yl)-1,2,4-oxadiazol-5-yl]-3,4-dihydro-2H-1-benzopyran-4-one]
19 | > 75 | >6.5 | > 75 | >5 | Brc1ccccc1-c1nc(-c2ccc3c(c2)nnn3C2CCCCC2)no1 [Compound 115, 5-(2-bromophenyl)-3-(1-cyclohexyl-1H-benzo[d][1,2,3]triazol-5-yl)-1,2,4-oxadiazole]
20 |  | >6.5 |  | >5 | CC(C)n1nnc2cc(-c3nc(-c4ccccc4Cl)no3)ccc21 [Compound 17, 5-[3-(2-chlorophenyl)-1,2,4-oxadiazol-5-yl]-1-(propan-2-yl)-1H-1,2,3-benzotriazole]
21 |  | <6.5 |  | <5 | CC(C)n1ccc2cc(-c3noc(-c4cccnc4)n3)ccc21 [Compound 396, 3-(1-isopropyl-1H-indol-5-yl)-5-(pyridin-3-yl)-1,2,4-oxadiazole]
22 | > 75 | >6.5 | > 75 | >5 | C=C(F)CNc1ccc(-c2nc(-c3ccc4c(c3)CCC(=O)N4)no2)cc1C#N [Compound 346, 2-[(2-fluoroprop-2-en-1-yl)amino]-5-[3-(2-oxo-1,2,3,4-tetrahydroquinolin-6-yl)-1,2,4-oxadiazol-5-yl]benzonitrile]
23 | > 75 | <6.5 | > 75 | <5 | Cc1occc1-c1noc(-c2ccc3c(c2)nnn3CC(C)(C)O)n1 [Compound 492, 2-methyl-1-{5-[3-(2-methylfuran-3-yl)-1,2,4-oxadiazol-5-yl]-1H-1,2,3-benzotriazol-1-yl}propan-2-ol]
24 |  | <6.5 |  | <5 | CC(C)Nc1ccc(-c2nnc(-c3ccc4c(c3)ncn4CCO)o2)cc1C#N [Compound 574, 5-{5-[1-(2-hydroxyethyl)-1H-1,3-benzodiazol-5-yl]-1,3,4-oxadiazol-2-yl}-2-[(propan-2-yl)amino]benzonitrile]
25 |  | <6.5 |  | <5 | CC(C)(CO)Cn1nnc2cc(-c3noc(-c4ccncc4C(F)(F)F)n3)ccc21 [Compound 528, 2,2-dimethyl-3-(5-(5-(3-(trifluoromethyl)pyridin-4-yl)-1,2,4-oxadiazol-3-yl)-1H-benzo[d][1,2,3]triazol-1-yl)propan-1-ol]
26 | < 75 | <6.5 | < 75 | <5 | Cc1ccccc1-c1noc(-c2ccc3nnn(C(C)C)c3c2)n1 [Compound 308, 6-[3-(2-methylphenyl)-1,2,4-oxadiazol-5-yl]-1-(propan-2-yl)-1H-1,2,3-benzotriazole]
27 | < 75 | <6.5 | < 75 | <5 | O=C(O)CCn1nnc2cc(-c3noc(-c4ccccc4Br)n3)ccc21 [Compound 134, 3-(5-(5-(2-bromophenyl)-1,2,4-oxadiazol-3-yl)-1H-benzo[d][1,2,3]triazol-1-yl)propanoic acid]
28 |  | <6.5 |  | <5 | OCCCn1nnc2cc(-c3noc(-c4ccccc4Br)n3)ccc21 [Compound 24, 3-(5-(5-(2-bromophenyl)-1,2,4-oxadiazol-3-yl)-1H-benzo[d][1,2,3]triazol-1-yl)propan-1-ol]
29 | > 75 | <6.5 | > 75 | <5 | CCC1(CC)CC(=O)c2cc(-c3nnc(-c4cccnc4)o3)ccc2O1 [Compound 28, 2,2-diethyl-6-(5-(pyridin-3-yl)-1,3,4-oxadiazol-2-yl)chroman-4-one]
30 |  | >6.5 |  | >5 | CC(C)Oc1ccc(-c2ncc(-c3ccc4c(c3)nnn4C(C)C)cn2)cc1C#N [Compound 595, 2-isopropoxy-5-(5-(1-isopropyl-1H-benzo[d][1,2,3]triazol-5-yl)pyrimidin-2-yl)benzonitrile]
31 | < 75 | <6.5 | < 75 | <5 | Cc1ccncc1-c1nc(-c2ccc3c(c2)nnn3C(C)(C)CO)no1 [Compound 625, 2-methyl-2-(5-(5-(4-methylpyridin-3-yl)-1,2,4-oxadiazol-3-yl)-1H-benzo[d][1,2,3]triazol-1-yl)propan-1-ol]
